Assay results from patent publication US20240115705A1, “Regulation of Butyrophilin subfamily 3 member A1 (BTN3A1, CD277)” (The J. Gladstone Institutes, a testamentary trust …, priority 2021, published 2024).
Read-outs that look alike come from different tables or passages of the source.

System: Daudi-Cas9 cells
Assay: Cancer-T cell co-culture genome-wide CRISPR knockout screen (Vγ9Vδ2 T cell killing)
Type: cell-based, human
[1] = MAGeCK sgRNA test, co-culture screen
[2] = log-fold change of sgRNA, surviving cells after co-culture vs baseline, MAGeCK
[3] = sgRNA abundance in surviving Daudi-Cas9 KO cells after 24 hours Vγ9Vδ2 T cell co-culture with zoledronate, MAGeCK
[4] = sgRNA enriched (TRUE) or depleted (FALSE) after T cell co-culture

Substance | LFC | high_in_treatment | score | treat mean | score [1] | LFC [2] | treat mean [3] | high_in_treatment [4]
SARS2_GCACGGTGCTCACCACGTC: library sgRNA targeting SARS2 (chemistry not given here) | −3.8724 | FALSE | 6.2052 | 200.19 |  |  |  | 
ACACA_GTTAGAGACGCTATTCCGC: library sgRNA targeting ACACA (listed as DNA, chemistry not fully specified) |  |  |  |  | 7.4534 | −5.2135 | 104.65 | FALSE
BTN3A1_CAGGGCGGCGATCCACCTC: library sgRNA targeting BTN3A1 (listed as DNA, chemistry not fully specified) |  |  |  |  | 11.298 | 2.049 | 3523.7 | TRUE
BCCIP_AATCTCTTACTGAAGCTGC: library sgRNA targeting BCCIP (listed as DNA, chemistry not fully specified) |  |  |  |  | 6.3357 | −5.3797 | 64.834 | FALSE
BTN3A1_GGGAGCCGGTTACTTCCTG: library sgRNA targeting BTN3A1 (listed as DNA, chemistry not fully specified) |  |  |  |  | 21.24 | 2.5697 | 7249.9 | TRUE
DKK1_CGCTAGTCCCACCCGCGGA: library sgRNA targeting DKK1 (as printed in the source, key not given here) |  |  |  |  | 6.0866 | 1.0785 | 4197.4 | TRUE
OIP5_TATTCTACCCATGCTGCCC: library sgRNA targeting OIP5 (as printed in the source, key not given here) |  |  |  |  | 6.4136 | −5.8943 | 45.034 | FALSE
GGNBP2_GTATGGGAACTAATGTCGC: library sgRNA targeting GGNBP2 (listed as DNA, chemistry not fully specified) |  |  |  |  | 6.4369 | 1.4472 | 2491.2 | TRUE
RFXAP_CGTTAGGTACCTGTGCGAA: library sgRNA targeting RFXAP (listed as DNA, chemistry not fully specified) |  |  |  |  | 7.0414 | 1.5428 | 2592.9 | TRUE
RPP25L_TGGCTCTGGGTCGGTTGGA: library sgRNA targeting RPP25L (as printed in the source, key not given here) |  |  |  |  | 6.0209 | −7.7316 | 9.1906 | FALSE
LUM_TAGAAAACTCCAAGATAAA: library sgRNA targeting LUM (listed as DNA, chemistry not fully specified) |  |  |  |  | 8.61 | 4.64 | 171.75 | TRUE
FBXW7_TTCTTCCAACTGTCCTTGC: library sgRNA targeting FBXW7 (as printed in the source, key not given here) |  |  |  |  | 7.5154 | 1.1042 | 6114.5 | TRUE
BTN3A1_GTTGATGTGAAGGGTTACA: library sgRNA targeting BTN3A1 (listed as DNA, chemistry not fully specified) |  |  |  |  | 9.8596 | 1.9969 | 2842.7 | TRUE
BTN3A1_CTTCTTCAGGAGCGCCCAG: library sgRNA targeting BTN3A1 (listed as DNA, chemistry not fully specified) |  |  |  |  | 19.78 | 2.2076 | 9150.3 | TRUE
MRPL55_CGACTCTACCCCGTGCTGC: library sgRNA targeting MRPL55 (as printed in the source, key not given here) |  |  |  |  | 6.305 | −4.7404 | 104.65 | FALSE
SPI1_CACGTCCTCGATACCCCCA: library sgRNA targeting SPI1 (as printed in the source, key not given here) |  |  |  |  | 9.6891 | 1.4776 | 5441.8 | TRUE
IRF9_TGTATCAGTTGCTGCCACC: library sgRNA targeting IRF9 (as printed in the source, key not given here) |  |  |  |  | 7.0068 | 1.2192 | 4293.9 | TRUE
N6AMT1_AGCAGAAACGTGTCCTCCG: library sgRNA targeting N6AMT1 (listed as DNA, chemistry not fully specified) |  |  |  |  | 6.0901 | −3.683 | 224.71 | FALSE
XPNPEP1_GGACTTGTAGGGATGCACC: library sgRNA targeting XPNPEP1 (as printed in the source, key not given here) |  |  |  |  | 6.7154 | 1.4173 | 2841.3 | TRUE
SLC22A3_GCCTTCCTCTTCGTCGGCG: library sgRNA targeting SLC22A3 (listed as DNA, chemistry not fully specified) |  |  |  |  | 6.0158 | 1.0179 | 4633 | TRUE
NAPG_GCAAAAGATGCCTGCCTGA: library sgRNA targeting NAPG (listed as DNA, chemistry not fully specified) |  |  |  |  | 6.3569 | −6.2732 | 33.086 | FALSE
RFXAP_ACAGGGTTGCATCACTAGC: library sgRNA targeting RFXAP (listed as DNA, chemistry not fully specified) |  |  |  |  | 10.037 | 1.6018 | 4884.6 | TRUE
TRMT61A_CACGTCACCTTGGAGCCGA: library sgRNA targeting TRMT61A (listed as DNA, chemistry not fully specified) |  |  |  |  | 6.3388 | −3.6911 | 242.28 | FALSE
IFNAR1_TCCATCAGATGCTTGTACG: library sgRNA targeting IFNAR1 (listed as DNA, chemistry not fully specified) |  |  |  |  | 7.1422 | 1.2274 | 4399.3 | TRUE
BTN3A2_GCGGGATGGCATCACTGCA: library sgRNA targeting BTN3A2 (listed as DNA, chemistry not fully specified) |  |  |  |  | 15.831 | 2.3489 | 5012.6 | TRUE
SUGT1_TTTGACTGATGAGTCCACT: library sgRNA targeting SUGT1 (listed as DNA, chemistry not fully specified) |  |  |  |  | 7.7611 | 1.5136 | 3294.2 | TRUE
